The results in this text go back to patent publication US9796714B2, “Calcium channel agonists” (University of Pittsburgh—Of the Commonwealth System of …, priority 2013, dated 2017).

Where two headings read alike, the source gives them in different places. Where only a bound is given, the exact number is not on record here.

In data set [1] the target is T1, N-type Ca^2+ channel (Cav2.2) (Rattus norvegicus, UniProt Q02294).
T1 construct: expressed in transfected cells; later also transient transfection
T1 sequence (Q02294 whole entry): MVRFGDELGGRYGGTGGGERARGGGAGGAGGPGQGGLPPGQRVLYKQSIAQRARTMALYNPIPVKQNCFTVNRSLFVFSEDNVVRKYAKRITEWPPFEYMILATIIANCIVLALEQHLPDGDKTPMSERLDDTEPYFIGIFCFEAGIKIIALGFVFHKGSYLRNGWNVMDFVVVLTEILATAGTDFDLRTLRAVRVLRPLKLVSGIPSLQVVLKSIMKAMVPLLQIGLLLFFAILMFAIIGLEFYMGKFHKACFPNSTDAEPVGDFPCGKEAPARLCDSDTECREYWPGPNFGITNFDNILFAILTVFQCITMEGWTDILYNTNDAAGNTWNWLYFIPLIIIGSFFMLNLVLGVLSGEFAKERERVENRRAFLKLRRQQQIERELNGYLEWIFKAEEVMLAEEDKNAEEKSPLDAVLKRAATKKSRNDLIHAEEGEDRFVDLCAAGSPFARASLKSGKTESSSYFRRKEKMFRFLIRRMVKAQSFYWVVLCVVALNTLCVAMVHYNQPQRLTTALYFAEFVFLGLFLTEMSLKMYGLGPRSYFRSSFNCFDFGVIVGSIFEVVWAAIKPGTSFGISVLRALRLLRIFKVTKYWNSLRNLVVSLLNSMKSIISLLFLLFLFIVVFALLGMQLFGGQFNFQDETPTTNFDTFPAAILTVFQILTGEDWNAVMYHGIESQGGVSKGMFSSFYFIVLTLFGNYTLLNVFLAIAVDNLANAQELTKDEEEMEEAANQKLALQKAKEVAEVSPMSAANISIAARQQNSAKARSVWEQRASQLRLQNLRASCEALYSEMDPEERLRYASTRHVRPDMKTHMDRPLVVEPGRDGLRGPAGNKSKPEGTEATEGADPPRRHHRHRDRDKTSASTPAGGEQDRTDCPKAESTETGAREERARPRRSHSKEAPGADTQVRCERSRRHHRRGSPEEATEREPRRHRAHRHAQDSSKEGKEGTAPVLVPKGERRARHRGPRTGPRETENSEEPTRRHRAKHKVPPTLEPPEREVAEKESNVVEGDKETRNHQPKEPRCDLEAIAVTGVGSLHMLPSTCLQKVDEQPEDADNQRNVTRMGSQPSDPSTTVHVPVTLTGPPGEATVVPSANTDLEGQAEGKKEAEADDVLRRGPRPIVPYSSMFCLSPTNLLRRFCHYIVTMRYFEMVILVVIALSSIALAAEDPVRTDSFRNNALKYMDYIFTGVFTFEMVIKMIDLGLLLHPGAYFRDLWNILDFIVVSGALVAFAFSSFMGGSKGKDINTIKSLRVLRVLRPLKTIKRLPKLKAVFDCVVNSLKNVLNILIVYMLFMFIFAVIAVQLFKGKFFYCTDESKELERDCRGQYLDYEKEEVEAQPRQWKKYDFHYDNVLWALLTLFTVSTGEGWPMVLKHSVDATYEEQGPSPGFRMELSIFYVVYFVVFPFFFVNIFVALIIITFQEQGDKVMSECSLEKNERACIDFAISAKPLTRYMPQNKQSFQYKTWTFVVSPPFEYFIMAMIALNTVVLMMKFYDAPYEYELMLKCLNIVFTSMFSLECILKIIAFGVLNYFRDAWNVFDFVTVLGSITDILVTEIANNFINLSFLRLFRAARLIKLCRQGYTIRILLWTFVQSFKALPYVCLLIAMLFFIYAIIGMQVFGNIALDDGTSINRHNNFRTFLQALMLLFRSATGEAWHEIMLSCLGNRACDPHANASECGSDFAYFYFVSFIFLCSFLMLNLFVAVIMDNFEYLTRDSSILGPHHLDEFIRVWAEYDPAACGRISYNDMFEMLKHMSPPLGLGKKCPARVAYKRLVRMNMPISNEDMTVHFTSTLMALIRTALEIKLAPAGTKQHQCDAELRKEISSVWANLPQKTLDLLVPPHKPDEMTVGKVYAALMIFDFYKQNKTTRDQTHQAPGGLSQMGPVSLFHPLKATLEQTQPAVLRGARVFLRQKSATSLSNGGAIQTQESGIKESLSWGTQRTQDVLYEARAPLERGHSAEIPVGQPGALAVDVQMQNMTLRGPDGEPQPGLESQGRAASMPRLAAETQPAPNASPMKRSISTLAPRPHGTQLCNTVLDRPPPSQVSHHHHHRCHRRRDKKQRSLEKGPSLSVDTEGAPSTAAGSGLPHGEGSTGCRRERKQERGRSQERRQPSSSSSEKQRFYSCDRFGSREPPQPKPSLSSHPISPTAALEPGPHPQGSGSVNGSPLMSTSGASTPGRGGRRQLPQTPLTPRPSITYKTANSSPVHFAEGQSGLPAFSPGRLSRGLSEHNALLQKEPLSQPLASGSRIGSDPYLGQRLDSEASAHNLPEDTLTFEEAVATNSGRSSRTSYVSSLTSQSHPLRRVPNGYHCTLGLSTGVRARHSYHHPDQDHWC
The data set is described as follows: N-type Ca2+ channel agonist activity, whole-cell perforated patch clamp of tail currents in tsA201 cells. The data set is classed as cell-based. On the procedure: tsA201 cells expressing calcium channels. […] For subsequent evaluation of effects on N-, P/Q-, or L-type channels, tsA-201 cells were transiently transfected with Cav2.2, Cav2.1, or Cav1.3, in combination with Cavβ3 and […] (Addgene, Cambridge Mass.) using FuGENE 6 (Life Technologies, Grand Island, N.Y.). All cells were maintained in DMEM supplemented with 10% fetal bovine serum. For the stable cell line expressing N-type channels, 25 μg/mL zeocin, 5 μg/mL blasticidin, and 25 μg/mL hygromycin were added as selection agents.
Whole-cell patch clamp recordings of calcium current. […] Briefly, the pipette solution consisted of […] Cs2SO4, 60 mM CsCl, 1 mM MgCl2, 10 mM 4-(2-hydroxyethyl)-1-piperazineethanesulfonic acid (HEPES) at pH 7.4. […] Patch pipettes were fabricated from borosilicate glass and pulled to a resistance of about 1 MΩ. Before each experiment, a stock solution consisting of 3 mg amphotericin-B dissolved into 50 μL anhydrous DMSO was made. […] Capacitive currents and passive membrane responses to voltage commands were subtracted from the data. Currents were amplified by an Axopatch 200B amplifier, filtered at 5 KHz, and digitized at 10 KHz for subsequent analysis using pClamp software (Axon Instruments/Molecular Devices; Sunnyvale, Calif.). […] To measure effects on calcium channel tail currents, the tail current integral was measured before and after application of a derivative, with the integral of each trace being normalized to its peak. All experiments were carried out at room temperature (22° C.). […] All other salts and chemicals were obtained from Sigma-Aldrich chemical company (St. Louis, Mo.).
(§1) Statistical Analysis. Statistical analysis was performed using either GraphPad Prism 5 (GraphPad Software, Inc.) or Origin 7 (OriginLab) software. For the dose-response analyses on Ca^2+ current, each concentration of the four different compounds was tested in 3-6 cells. […] All EC50 and IC50 values and their respective errors were determined by performing 100 iterations of a logistic function curve fit. Data are presented as mean±s.e.m. unless otherwise noted.

The nature of data set [2]: Solubility in saline with 1% DMSO. The data set is classed as physicochemical. The conditions noted are these: saline or isotonic, kinetic from dmso stock.
Data set [3] has as its target T2, mitogen-activated protein kinase (MAPK1(h)) (Homo sapiens, UniProt P27361).
T2 construct: purchased EMD Millipore KinaseProfiler service (Millipore UK Ltd.)
The data set is described as follows: Kinase inhibitory activity (EMD Millipore KinaseProfiler), MAPK1. The data set is classed as biochemical. The conditions noted are these: 20 μM highest concentration used; read-out: MAPK EC50/IC50 affinities. The procedure:
(§2) Kinase inhibitory activity. Kinase inhibitory activities were determined using the EMD Millipore KinaseProfiler™ service (Millipore UK Ltd.). Each compound's kinase inhibitory activity was tested at three different concentrations (0.2 μM, 2 μM, and 20 μM) against five different kinases: Cdk1 cyclinB(h), cdk2 cyclinA(h), cdk5 p35(h), mitogen-activated protein kinase (MAPK1(h)) and myosin light-chain kinase (MLCK(h)).
(§3) Statistical Analysis. […] For the dose-response analyses on Ca^2+ current, each concentration of the four different compounds was tested in 3-6 cells. […] All EC50 and IC50 values and their respective errors were determined by performing 100 iterations of a logistic function curve fit.

Data set [4] addresses T3, myosin light-chain kinase (MLCK(h)) (Homo sapiens, UniProt Q9H1R3).
T3 construct: purchased EMD Millipore KinaseProfiler service (Millipore UK Ltd.)
The data set is described as follows: Kinase inhibitory activity (EMD Millipore KinaseProfiler), MLCK. The data set is classed as biochemical. The conditions noted are these: 20 μM highest concentration used; read-out: MLCK EC50/IC50 affinities. On the procedure: as §2, §3

Data set [5] has as its target T4, cdk2 cyclinA(h) (Homo sapiens, UniProt P24941).
T4 construct: purchased EMD Millipore KinaseProfiler service (Millipore UK Ltd.)
The data set is described as follows: Kinase inhibitory activity (EMD Millipore KinaseProfiler), cdk2. The data set is classed as biochemical. On the procedure: as §2, §3

Data set [6] deals with T5, Cdk1 cyclinB(h) (Homo sapiens, UniProt P06493).
T5 construct: purchased EMD Millipore KinaseProfiler service (Millipore UK Ltd.)
T5 sequence (P06493 whole entry): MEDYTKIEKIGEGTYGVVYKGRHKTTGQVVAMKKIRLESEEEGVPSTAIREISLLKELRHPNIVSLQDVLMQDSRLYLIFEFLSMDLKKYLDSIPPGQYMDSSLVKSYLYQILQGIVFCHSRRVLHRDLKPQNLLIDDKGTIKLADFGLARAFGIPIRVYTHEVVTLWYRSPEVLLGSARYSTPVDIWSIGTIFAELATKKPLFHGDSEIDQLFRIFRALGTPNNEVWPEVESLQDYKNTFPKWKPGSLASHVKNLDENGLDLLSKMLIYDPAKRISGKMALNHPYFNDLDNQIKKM
T5 sequence (P14635 whole entry partner): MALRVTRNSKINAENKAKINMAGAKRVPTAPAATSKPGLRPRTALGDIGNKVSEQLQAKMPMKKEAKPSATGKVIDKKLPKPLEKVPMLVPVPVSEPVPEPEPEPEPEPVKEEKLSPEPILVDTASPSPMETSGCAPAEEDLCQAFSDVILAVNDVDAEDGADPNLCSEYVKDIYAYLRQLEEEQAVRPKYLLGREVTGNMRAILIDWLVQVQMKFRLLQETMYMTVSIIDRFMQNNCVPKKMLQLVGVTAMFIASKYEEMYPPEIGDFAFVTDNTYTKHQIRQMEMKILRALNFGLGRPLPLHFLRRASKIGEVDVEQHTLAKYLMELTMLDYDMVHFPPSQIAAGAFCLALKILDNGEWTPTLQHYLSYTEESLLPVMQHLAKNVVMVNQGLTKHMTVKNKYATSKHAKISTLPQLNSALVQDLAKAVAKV
The data set is described as follows: Kinase inhibitory activity (EMD Millipore KinaseProfiler), cdk1. The conditions noted are these: 20 μM highest concentration used; read-out: Cdk1 EC50/IC50 affinities. The data set is classed as biochemical. The procedure: as §2, §1

Data set [7] has as its target T6, cdk5 p35(h) (Homo sapiens, UniProt Q00535).
T6 construct: purchased EMD Millipore KinaseProfiler service (Millipore UK Ltd.)
The data set is described as follows: Kinase inhibitory activity (EMD Millipore KinaseProfiler), cdk5. The conditions noted are these: 20 μM highest concentration used; read-out: Cdk5 EC50/IC50 affinities. The data set is classed as biochemical. On the procedure:
as §2, §1

[8] abbreviates: whole cell perforated patch clamp, deactivation (tail) currents from N-type channels, read-out: N-Type Ca^2+ Channel Activity EC50 +/− SEM.
Where [9] appears, read: Table 3, calcium channel agonist, read-out: N-type EC50/IC50 affinities.

T2 sequence (P27361 whole entry): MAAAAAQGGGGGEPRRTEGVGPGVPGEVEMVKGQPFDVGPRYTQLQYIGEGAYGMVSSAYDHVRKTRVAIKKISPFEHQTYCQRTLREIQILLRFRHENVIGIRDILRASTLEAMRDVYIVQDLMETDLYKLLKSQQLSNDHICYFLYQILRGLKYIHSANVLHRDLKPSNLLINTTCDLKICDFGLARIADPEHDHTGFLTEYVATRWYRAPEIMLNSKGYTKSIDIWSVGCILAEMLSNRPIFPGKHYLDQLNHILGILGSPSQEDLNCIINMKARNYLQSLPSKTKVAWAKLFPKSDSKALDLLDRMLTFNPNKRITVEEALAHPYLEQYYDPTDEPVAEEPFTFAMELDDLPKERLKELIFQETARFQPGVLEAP
T6 sequence (Q00535 whole entry): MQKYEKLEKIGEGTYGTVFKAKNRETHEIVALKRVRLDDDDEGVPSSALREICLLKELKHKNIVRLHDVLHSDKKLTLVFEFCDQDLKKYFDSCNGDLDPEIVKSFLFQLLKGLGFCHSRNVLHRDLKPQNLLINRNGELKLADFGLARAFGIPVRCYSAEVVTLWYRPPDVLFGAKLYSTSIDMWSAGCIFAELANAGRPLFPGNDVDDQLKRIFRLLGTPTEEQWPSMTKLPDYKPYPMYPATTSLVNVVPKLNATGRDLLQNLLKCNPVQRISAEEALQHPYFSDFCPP
T6 sequence (Q15078 whole entry partner): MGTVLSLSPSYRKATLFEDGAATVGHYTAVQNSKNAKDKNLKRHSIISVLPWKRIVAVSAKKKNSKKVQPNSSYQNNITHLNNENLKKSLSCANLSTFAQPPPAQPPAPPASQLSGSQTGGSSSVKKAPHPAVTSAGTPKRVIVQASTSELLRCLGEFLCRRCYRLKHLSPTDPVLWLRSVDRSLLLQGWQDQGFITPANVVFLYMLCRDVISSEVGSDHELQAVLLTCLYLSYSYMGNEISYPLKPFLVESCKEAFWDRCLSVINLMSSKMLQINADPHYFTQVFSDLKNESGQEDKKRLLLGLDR

For `CC[C@H](CO)Nc1nc(NCc2ccccc2)c2ncn(C)c2n1` [Compound 13k, (R)-2-(6-(Benzylamino)-9-methyl-9H-purin-2-ylamino)butan-1-ol], the EC50 in data set [1] (setting [8]) is more than 70 µM. The solubility in data set [2] is not above 200 µM.
Consider `CC[C@H](CO)Nc1nc(NCc2ccc(C)s2)c2ncn(C(C)C)c2n1` [Compound 13u, (R)-2-(9-Isopropyl-6-((5-methylthiophen-2-yl)methylamino)-9H-purin-2-ylamino)butan-1-ol], for which, in data set [1] (N-type), the “agonist effect on the Ca^2+ channel tail currents (in words)” value is “strong agonist effect”. Besides, the “increased Ca^2+ channel agonism vs. (R)-roscovitine” value in data set [1] (N-type) is approximately 4 fold. Further, the EC50 in data set [1] (setting [9]) and in data set [1] (setting [8]) was 11.3 ± 1.48 µM throughout. The values for the IC50 in data set [3] and in data set [4] were more than 20 µM and 19.5 ± 8.65 µM, respectively.
Regarding `CC[C@H](CO)Nc1nc(NCc2ccc(C)s2)c2ncn(C)c2n1` [Compound 13w, (2R)-2-[(9-Methyl-6-{[(5-methylthiophen-2-yl)methyl]amino}-9H-purin-2-yl)amino]butan-1-ol], the “decreased channel activity vs 13u” value in data set [1] was “ca. 3 fold”. Also, the “agonist effect on the Ca^2+ channel tail currents (in words)” value in data set [1] (N-type) is reported as “strong agonist effect”. Further, in data set [1] (N-type channels), the “maximal fold increase in the tail current integral relative to control” value is recorded as approximately 13 fold. Moreover, the EC50 in data set [1] (setting [9]) turned out to be 30 ± 1.87 µM; in data set [1] (setting [8]), 30 ± 1.87 µM; in data set [5] (determined in duplicate at 0.2, 2, and 20 μM, read-out: Cdk2 Activity EC50 +/− SEM), 3 µM. The IC50 in data set [5] (20 μM highest concentration used, read-out: Cdk2 EC50/IC50 affinities) was 3.04 ± 0.17 µM; in data set [6], 10.5 ± 2.77 µM; in data set [7], 2.81 ± 0.91 µM; in data set [3], more than 20 µM; in data set [4] it was more than 20 µM.

By solubility is commonly meant the concentration that dissolves in the medium under given conditions. Low readings indicate little dissolved substance, high ones much dissolved substance.
